Patent US10874646B2, “Epothilone analogs, methods of synthesis, methods of treatment, and drug conjugates thereof” (WILLIAM MARSH RICE UNIVERSITY, priority 2015, dated 2020)

Tests used:
MCF-7 = experiment: Cytotoxicity, standard NCI assay with sulforhodamine B, 96 h; conditions: Homo sapiens, MCF7, 96 h, read-out: cytotoxicity (GI50, nM ± SD) MCF-7
tubulin = experiment: Induction/enhancement of tubulin assembly (Lin, et al., 1996); assay type: biochemical; conditions: 10 μM tubulin, 0.4M monosodium glutamate, 30 min at room temperature; Table 2; read-out: induction of tubulin assembly (EC50, μM ± SD)
OVCAR-8 = experiment: Cytotoxicity, standard NCI assay with sulforhodamine B, 96 h; conditions: Homo sapiens, OVCAR-8, 96 h, read-out: cytotoxicity (GI50, nM ± SD) OVCAR-8
HS 578T = experiment: NCI-60 human cancer cell line panel, five dose screen; assay type: cell-based; conditions: NCI-60 five dose screen
Description: (§1) Biological evaluation. The synthesized epothilone analogues were submitted to the NCI for testing against the NCI-60 human cancer cell line panel (Shoemaker, 2006).

K-562 = experiment: as above; assay type: cell-based; conditions: K562, NCI-60 five dose screen
Description: as §1

HCT-15 = experiment: as above; assay type: cell-based; conditions: NCI-60 five dose screen
Description: as §1

HT29 = experiment: as above; assay type: cell-based; conditions: HT-29, NCI-60 five dose screen
Description: as §1

KM12 = experiment: as above; assay type: cell-based; conditions: NCI-60 five dose screen
Description: as §1

RPMI-8226 = experiment: as above; assay type: cell-based; conditions: NCI-60 five dose screen
Description: as §1

RXF 393 = experiment: as above; assay type: cell-based; conditions: NCI-60 five dose screen
Description: as §1

HCT-116 = experiment: as above; assay type: cell-based; conditions: NCI-60 five dose screen
Description: as §1

LOX IMVI = experiment: as above; assay type: cell-based; conditions: NCI-60 five dose screen
Description: as §1

SR = experiment: as above; assay type: cell-based; conditions: NCI-60 five dose screen
Description: as §1

A498 = experiment: as above; assay type: cell-based; conditions: NCI-60 five dose screen
Description: as §1

COLO 205 = experiment: as above; assay type: cell-based; conditions: NCI-60 five dose screen
Description: as §1

HOP-92 = experiment: as above; assay type: cell-based; conditions: NCI-60 five dose screen, read-out: GI50
Description: as §1

MDA-MB-435 = experiment: as above; assay type: cell-based; conditions: NCI-60 five dose screen
Description: as §1

A549/ATCC = experiment: as above; assay type: cell-based; conditions: NCI-60 five dose screen
Description: as §1

SK-MEL-5 = experiment: as above; assay type: cell-based; conditions: NCI-60 five dose screen
Description: as §1

HL-60(TB) = experiment: as above; assay type: cell-based; conditions: NCI-60 five dose screen
Description: as §1

SW-620 = experiment: as above; assay type: cell-based; conditions: NCI-60 five dose screen
Description: as §1

MCF7 = experiment: as above; assay type: cell-based; conditions: NCI-60 five dose screen
Description: as §1

U251 = experiment: as above; assay type: cell-based; conditions: U-251, NCI-60 five dose screen
Description: as §1

NCI-H460 = experiment: as above; assay type: cell-based; conditions: NCI-60 five dose screen
Description: as §1

CCRF-CEM = experiment: as above; assay type: cell-based; conditions: NCI-60 five dose screen
Description: as §1

OVCAR-3 = experiment: as above; assay type: cell-based; conditions: NCI-60 five dose screen
Description: as §1

NCI-H23 = experiment: as above; assay type: cell-based; conditions: NCI-60 five dose screen
Description: as §1

SF-539 = experiment: as above; assay type: cell-based; conditions: NCI-60 five dose screen
Description: as §1

M14 = experiment: as above; assay type: cell-based; conditions: NCI-60 five dose screen
Description: as §1

MDA-MB-468 = experiment: as above; assay type: cell-based; conditions: NCI-60 five dose screen
Description: as §1

PC-3 = experiment: as above; assay type: cell-based; conditions: NCI-60 five dose screen
Description: as §1

SNB-75 = experiment: as above; assay type: cell-based; conditions: NCI-60 five dose screen
Description: as §1

MOLT-4 = experiment: as above; assay type: cell-based; conditions: NCI-60 five dose screen
Description: as §1

Row | SMILES | GI50 (MCF-7) [nM] | EC50 (tubulin) [µM] | GI50 (OVCAR-8) [nM] | GI50 (HS 578T) [nM] | GI50 (K-562) [nM] | GI50 (HCT-15) [nM] | GI50 (HT29) [nM] | GI50 (KM12) [nM] | GI50 (RPMI-8226) [nM] | GI50 (RXF 393) [nM] | GI50 (HCT-116) [nM] | GI50 (LOX IMVI) [nM] | GI50 (A498) [nM] | GI50 (COLO 205) [nM] | GI50 (HOP-92) [nM] | GI50 (MDA-MB-435) [nM] | GI50 (A549/ATCC) [nM] | GI50 (SK-MEL-5) [nM] | GI50 (HL-60(TB)) [nM] | GI50 (SW-620) [nM] | also measured
1 | C/C(=C\c1ccn(-c2ccc(N)cc2)n1)[C@@H]1C[C@@H]2O[C@]2(C)CCC[C@H](C)[C@H](O)[C@@H](C)C(=O)C(C)(C)[C@@H](O)CC(=O)O1 [Compound 8] | 10 | 15 ± 4 | 38 ± 10 | 44 | 24.7 | 26.7 | 19.6 | 19.2 | 21.3 | 38.4 | 18.7 | 23.6 | 102 | 18.6 | 146 | 8.09 | 36.9 | 20 | 15.8 | 25 | GI50 (SR): 30.3 nM; GI50 (MCF7): 15.2 nM; GI50 (U251): 35.6 nM; GI50 (NCI-H460): 20.5 nM; GI50 (CCRF-CEM): 34.1 nM; GI50 (OVCAR-3): 18.1 nM; GI50 (NCI-H23): 25.2 nM; GI50 (SF-539): 19 nM; GI50 (M14): 19.2 nM; GI50 (MDA-MB-468): 39.2 nM; GI50 (PC-3): 30.4 nM; GI50 (SNB-75): 11.4 nM; GI50 (MOLT-4): 38.9 nM
2 | C/C(=C\c1cc(C(F)(F)F)n(-c2ccc(N)cc2)n1)[C@@H]1C[C@@H]2O[C@]2(C)CCC[C@H](C)[C@H](O)[C@@H](C)C(=O)C(C)(C)[C@@H](O)CC(=O)O1 [Compound 9] | 900 | > 40 | 300 | 36.4 | 15.7 | 22 | 5.29 | 5.25 | 11.1 | 40.7 | 5.31 | 25 | 66 | 14.7 | 183 | 2.08 | 48.8 | 22.1 | 7.88 | 5.4 | GI50 (MCF7): 3.65 nM; GI50 (U251): 38.1 nM; GI50 (NCI-H460): 6.45 nM; GI50 (CCRF-CEM): 47.6 nM; GI50 (OVCAR-3): 15.8 nM; GI50 (NCI-H23): 88.5 nM; GI50 (SF-539): 24.8 nM; GI50 (M14): 13.7 nM; GI50 (MDA-MB-468): 23.1 nM; GI50 (PC-3): 32.2 nM; GI50 (MOLT-4): 48.1 nM
3 | C/C(=C\c1ccn(-c2ccccc2N)n1)[C@@H]1C[C@@H]2O[C@]2(C)CCC[C@H](C)[C@H](O)[C@@H](C)C(=O)C(C)(C)[C@@H](O)CC(=O)O1 [Compound 10] | 5.5 | 8 ± 1 | 23 ± 10 | 31.6 | 24.4 | 32.5 | 18.8 | 20.6 | 17.8 | 39.6 | 18.3 | 31.3 | 18.8 | 20.4 | 80.7 | 9.56 | 34.5 | 21.9 | 17.2 | 24.5 | GI50 (SR): 27.4 nM; GI50 (MCF7): 17.7 nM; GI50 (U251): 30.8 nM; GI50 (NCI-H460): 20.3 nM; GI50 (CCRF-CEM): 22.6 nM; GI50 (OVCAR-3): 18.8 nM; GI50 (NCI-H23): 35.8 nM; GI50 (SF-539): 15.8 nM; GI50 (M14): 18 nM; GI50 (MDA-MB-468): 23.4 nM; GI50 (PC-3): 34.3 nM; GI50 (SNB-75): 16.4 nM; GI50 (MOLT-4): 27.6 nM
4 | C/C(=C\c1ccn(-c2ccc(N)c(C(F)(F)F)c2)n1)[C@@H]1C[C@@H]2O[C@]2(C)CCC[C@H](C)[C@H](O)[C@@H](C)C(=O)C(C)(C)[C@@H](O)CC(=O)O1 [Compound 11] | 3 ± 1 | 2.5 ± 0.5 | 2.5 ± 0.4 | 7.1 | 10.2 | 11 | 5.74 | 9.16 | 9.98 | 14 | 4.82 | 10.3 | 11.3 | 8.48 | 16.1 | < 3.25 | 13.4 | 10.1 | 7.36 | 6.23 | GI50 (SR): 7.29 nM; GI50 (MCF7): < 3.25 nM; GI50 (U251): 14.6 nM; GI50 (NCI-H460): 8.73 nM; GI50 (CCRF-CEM): 12.3 nM; GI50 (OVCAR-3): 10.2 nM; GI50 (NCI-H23): 18.3 nM; GI50 (SF-539): 9.55 nM; GI50 (M14): 4.88 nM; GI50 (MDA-MB-468): 10.6 nM; GI50 (PC-3): 12.7 nM; GI50 (SNB-75): 5.75 nM; GI50 (MOLT-4): 14.2 nM
5 | C/C(=C\c1ccn(-c2ccc(N)c(F)c2)n1)[C@@H]1C[C@@H]2O[C@]2(C)CCC[C@H](C)[C@H](O)[C@@H](C)C(=O)C(C)(C)[C@@H](O)CC(=O)O1 [Compound 12] | 2.5 | 7.8 ± 1 | 1.8 ± 0.4 | 5.51 | < 5 | < 5 | < 5 | < 5 | < 5 | 9.39 | < 5 | < 5 | < 5 | < 5 | < 5 | < 5 | 6.05 | < 5 | < 5 | < 5 | GI50 (SR): < 5 nM; GI50 (MCF7): < 5 nM; GI50 (U251): < 5 nM; GI50 (NCI-H460): < 5 nM; GI50 (CCRF-CEM): 6.09 nM; GI50 (OVCAR-3): < 5 nM; GI50 (NCI-H23): 5.72 nM; GI50 (SF-539): 9.41 nM; GI50 (M14): < 5 nM; GI50 (MDA-MB-468): 7.22 nM; GI50 (PC-3): 9.75 nM; GI50 (SNB-75): < 5 nM; GI50 (MOLT-4): < 5 nM
